Publication PMC4762250, “Novel cis-selective and non-epimerisable C3 hydroxy azapodophyllotoxins targeting microtubules in cancer cells” (European Journal of Medicinal Chemistry, 2016)
Entries after “also recorded” stand apart in the source; their conditions may differ.

How the values were obtained:
[1] = tested on: human prostate cancer cell line 22Rv1; experiment: Oncotest propidium iodide monolayer cell proliferation assay, 22Rv1; assay type: cell-based; details: Homo sapiens, 22Rv1, 96 h, mean absolute IC50, 96 h treatment, propidium iodide endpoint, triplicate
Description: (§1) The anticancer activity of compounds (8a-q) was evaluated using the Oncotest monolayer assay in the human prostate cancer cell line 22Rv1 and the human breast cancer cell line MCF-7, as an outsourced service. […] Antitumour activity was assessed after four days of treatment with the compounds using a propidium iodide based monolayer assay. Potency is expressed as absolute IC50 values, calculated by non-linear regression analysis following testing in triplicate. The seventeen inhibitors were tested at 10 concentrations in half-log increments up to 100 μM in triplicate.
(§2) A modified propidium iodide (PI) based monolayer assay was used to assess the anti-cancer activity of the compounds. Briefly, cells were harvested from exponential phase cultures, counted and plated in 96-well flat-bottom microtiter plates at a cell density of 8.000–12.000 cells/well. After a 24 h recovery period to allow the cells to resume exponential growth, 10 μl of culture medium (six control wells/plate) or culture medium with test compound were added. The compounds were applied in half-log increments at 10 concentrations in triplicate. After a total treatment period of 96 h, cells were washed with 200 μl PBS to remove dead cells and debris. Then, 200 μl of a solution containing 7 μg/mL propidium iodide (PI) was added. After an incubation period of 1–2 h at room temperature, fluorescence (FU) was measured using the EnSpire Multimode Plate Reader (excitation λ = 530 nm, emission λ = 620 nm) to quantify the amount of attached viable cells. IC50 values were calculated by 4-parameter non-linear curve fit using Oncotest Warehouse Software. For calculation of mean IC50 values the geometric mean was used.

MCF-7 and 22Rv1 = experiment: Oncotest monolayer assay, results stated over both cell lines; assay type: cell-based, human; details: for IC50: Homo sapiens, geometric mean over MCF-7 and 22Rv1, read-out: Mean IC50 values; for antiproliferative activity (in words): MCF-7 and 22Rv1
Description: as §1, §2

[2] = tested on: human breast cancer cell line MCF-7; experiment: Oncotest propidium iodide monolayer cell proliferation assay, MCF-7; assay type: cell-based; details: Homo sapiens, MCF7, 96 h, mean absolute IC50, 96 h treatment, propidium iodide endpoint, triplicate; read-out: MCF-7 IC50
Description: as §1, §2

CSc1ccc([C@@H]2c3c(c4cccnc4c4ncccc34)N[C@@]3(O)COC(=O)[C@H]23)cc1 (mixture of isomers) [Compound 8a, (9aS, 12aR, 13R) and (9aR, 12aS, 13S) 9a-hydroxy-13-(4-(methylthio)phenyl)-9a,10,12a,13-tetrahydrofuro[3,4-b]pyrido[3,2-f][1,10]phenanthrolin-12(9H)-one]
IC50 [1]: 855 nM
IC50 (MCF-7 and 22Rv1): 500 to 1000 nM
IC50 [2]: 648 nM

O=C1OC[C@]2(O)Nc3c(c4cccnc4c4ncccc34)[C@@H](c3cccc(OC(F)(F)F)c3)[C@@H]12 (mixture of isomers) [Compound 8c, (9aS, 12aR, 13R) and (9aR, 12aS, 13S) 9a-hydroxy-13-(3-(trifluoromethoxy)phenyl)-9a,10,12a,13-tetrahydrofuro[3,4-b]pyrido[3,2-f][1,10]phenanthrolin-12(9H)-one]
IC50 [1]: 257 nM
IC50 [2]: 466 nM

O=C1OC[C@]2(O)Nc3c(c4cccnc4c4ncccc34)[C@@H](c3ccc(OC(F)(F)F)cc3)[C@@H]12 (mixture of isomers) [Compound 8d, (9aS, 12aR, 13R) and (9aR, 12aS, 13S) 9a-hydroxy-13-(4-(trifluoromethoxy)phenyl)-9a,10,12a,13-tetrahydrofuro[3,4-b]pyrido[3,2-f][1,10]phenanthrolin-12(9H)-one]
IC50 [1]: 239 nM
IC50 [2]: 424 nM

O=C1OC[C@]2(O)Nc3c(c4cccnc4c4ncccc34)[C@@H](c3cccc(C(F)(F)F)c3)[C@@H]12 (mixture of isomers) [Compound 8f, (9aS, 12aR, 13R) and (9aR, 12aS, 13S) 9a-hydroxy-13-(3-(trifluoromethyl)phenyl)-9a,10,12a,13-tetrahydrofuro[3,4-b]pyrido[3,2-f][1,10]phenanthrolin-12(9H)-one]
IC50 [1]: 510 nM
IC50 (MCF-7 and 22Rv1): 500 to 1000 nM
IC50 [2]: 825 nM

O=C1OC[C@]2(O)Nc3c(c4cccnc4c4ncccc34)[C@@H](c3cccc(S(F)(F)(F)(F)F)c3)[C@@H]12 (mixture of isomers) [Compound 8g, (9aS, 12aR, 13R) and (9aR, 12aS, 13S) 9a-hydroxy-13-(3-(pentafluorosulfanyl)phenyl)-9a,10,12a,13-tetrahydrofuro[3,4-b]pyrido[3,2-f][1,10]phenanthrolin-12(9H)-one]
IC50 [1]: 311 nM
IC50 (MCF-7 and 22Rv1): < 500 nM
antiproliferative activity (in words) (MCF-7 and 22Rv1): more active than etoposide in both cell lines; also recorded: submicromolar activity
IC50 [2]: 589 nM

Cc1cc(OC(F)(F)F)cc([C@@H]2c3c(c4cccnc4c4ncccc34)N[C@@]3(O)COC(=O)[C@H]23)c1 (mixture of isomers) [Compound 8h, (9aS, 12aR, 13R) and (9aR, 12aS, 13S) 9a-hydroxy-13-(3-methyl-5-trifluoromethoxyphenyl)-9a,10,12a,13-tetrahydrofuro[3,4-b]pyrido[3,2-f][1,10] phenanthrolin-12(9H)-one]
IC50 [1]: 242 nM
IC50 (MCF-7 and 22Rv1): < 500 nM
antiproliferative activity (in words) (MCF-7 and 22Rv1): more active than etoposide in both cell lines
IC50 [2]: 475 nM

O=C1OC[C@]2(O)Nc3c(c4cccnc4c4ncccc34)[C@@H](c3ccc(SC(F)(F)F)cc3)[C@@H]12 (mixture of isomers) [Compound 8i, (9aS, 12aR, 13R) and (9aR, 12aS, 13S) 9a-hydroxy-13-(4-((trifluoromethyl)thio)phenyl)-9a,10,12a,13-tetrahydrofuro[3,4-b]pyrido [3,2-f][1,10]phenanthrolin-12(9H)-one]
IC50 [1]: 894 nM
IC50 (MCF-7 and 22Rv1): < 10000 nM
IC50 [2]: 2300 nM

O=C1OC[C@]2(O)Nc3c(c4cccnc4c4ncccc34)[C@@H](c3cc(C(F)(F)F)cc(C(F)(F)F)c3)[C@@H]12 (mixture of isomers) [Compound 8j, (9aS, 12aR, 13R) and (9aR, 12aS, 13S) 13-(3,5-bis(trifluoromethyl)phenyl)-9a-hydroxy-9a,10,12a,13-tetrahydrofuro[3,4-b]pyrido[3,2-f][1,10] phenanthrolin-12(9H)-one]
IC50 [1]: 380 nM
IC50 (MCF-7 and 22Rv1): < 500 nM
antiproliferative activity (in words) (MCF-7 and 22Rv1): submicromolar activity
IC50 [2]: 643 nM
